The source of these data is patent US11124774B2, “Engineered liver tissues, arrays thereof, and methods of making the same” (Organovo, Inc., priority 2013, dated 2021).

The experiment has as its system bioprinted hepatic stellate cell tissues. Description: Stimulation of bioprinted hepatic stellate cell tissues with cytokine. It counts as cell-based, human. Here is the method: FIG. 15 is a non-limiting example of stimulation of bioprinted hepatic stellate cell tissues with TGF-β1.
Cylindrical bio-ink comprising relevant heterogeneous (i.e., polytypic) cell populations were prepared. Physiologically-relevant populations (e.g., hepatic stellate cells (hSC) and human aortic endothelial cells (EC)) of cells were combined at specific ratios to generate proper bio-ink. Cells were maintained and propagated under standard laboratory conditions and cells were cultured in media either purchased from the same vendor as the cells, or media comprising components typically found in the primary literature to be conducive to standard cell culture practices for those particular cell types. Cell processing for bio-ink preparation was as follows: briefly, cells were liberated from standard tissue culture plastic by washing with cation-free phosphate buffered saline (PBS) and then exposed to 0.1-0.05% trypsin (Invitrogen). Liberated cells were then washed in serum-containing media, collected, counted, and combined in an appropriate ratio for the stimulation assay or experiment being conducted, and pelleted by centrifugation. Supernatant was then removed and the cell pellet was aspirated into a glass microcapillary, which was then submerged in complete media for approximately 15 to 20 minutes. This cylindrical bio-ink structure was then extruded into a non cell-adherent hydrogel mold, containing linear channels and held for 2 to 18 hours. Cylindrical bio-ink containing hSC:EC was then used to fabricate bioprinted tissue constructs and maintained and/or matured in a humidified chamber. Tissue segments were fabricated with initial dimensions of 1.25 mm×8 mm×0.25 mm (W×L×H). During the post-bioprinting maturation period some constructs were exposed to the cytokine TGF-β1 to elicit a tissue-specific response (see FIG. 15).
The bioprinted neotissues were then submerged in serum-containing complete cell culture media and placed in a standard humidified chamber, supplemented with 5% CO2 for maturation. The bioprinted neotissues were then cultured and stimulated with a relevant cytokine(s) for a predetermined period of time, formalin-fixed, harvested, and processed for standard histology and immunohistochemistry. The bioprinted tissues were evaluated for characteristics such as, but not limited to for tissue morphology, cell organization, extracellular matrix production, cell proliferation, cell viability, and construct integrity.
Cytokine stimulation was conducted by adding cytokine directly to the culture media and incubating the bioprinted tissues with the added protein to provide direct and prolonged cell access to the proper stimulus. […]

Where [1] appears, read: 0-50 ng/mL, tissue sections of bioprinted hepatic stellate-containing tissues (FIG. 15E-H).

Take “TGF-β1: cytokine (transforming growth factor beta 1) used to elicit a tissue-specific response in bioprinted tissues”: under setting [1], the cell density entry is given as “dramatic decreases in cell density”, the “collagen deposition (Trichrome staining)” value is “increases in collagen deposition” and the construct size entry is on record as “increases”. Where the note is “increasing concentrations 0, 1, 10, 50 ng/mL, bioprinted hepatic stellate cell sheets (FIG. 15A-D)”, the “tissue outgrowth formation (gross observation)” value is on record as “increases in tissue outgrowth formation”.
